Test results published in ChEMBL document CHEMBL2385026, “Identification of C-2 hydroxyethyl imidazopyrrolopyridines as potent JAK1 inhibitors with favorable physicochemical properties and high selectivity over JAK2” (J Med Chem, 2013).
In brackets after ≈: the same amount, converted by molar mass.

Columns and labels:
[1] = Hepatic clearance in human liver microsomes by LC/MS/MS analysis; assay type: ADME, Microsome
[2] = Hepatic clearance in human hepatocytes after 1 to 4 hrs by LC/MS/MS analysis; assay type: ADME, cell-based, Liver, Hepatocyte
[3] = Apparent permeability across apical to basolateral side in dog MDCK cells; assay type: ADME, cell-based, Canis lupus familiaris
[4] = biological target: T1, Tyrosine-protein kinase JAK1 (Homo sapiens, UniProt P23458)
[5] = biological target: T1, Tyrosine-protein kinase JAK1; remark: listed apart in the source
[6] = biological target: T1, Tyrosine-protein kinase JAK1; remark: listed apart in the source
[7] = biological target: T2, Tyrosine-protein kinase JAK2 (Homo sapiens, UniProt O60674); assay type: cell-based, TF-1
[8] = biological target: T2, Tyrosine-protein kinase JAK2
[9] = biological target: T3, Cytochrome P450 3A4 (Homo sapiens, UniProt P08684); experiment: Reversible inhibition of CYP3A4 in human liver microsomes using testosterone as substrate by LC/MS/MS analysis; assay type: ADME, Microsome
[10] = biological target: T4, Cytochrome P450 1A2 (Homo sapiens, UniProt P05177); experiment: Reversible inhibition of CYP1A2 in human liver microsomes using phenacetin as substrate by LC/MS/MS analysis; assay type: ADME, Microsome
T4 sequence (P05177 whole entry): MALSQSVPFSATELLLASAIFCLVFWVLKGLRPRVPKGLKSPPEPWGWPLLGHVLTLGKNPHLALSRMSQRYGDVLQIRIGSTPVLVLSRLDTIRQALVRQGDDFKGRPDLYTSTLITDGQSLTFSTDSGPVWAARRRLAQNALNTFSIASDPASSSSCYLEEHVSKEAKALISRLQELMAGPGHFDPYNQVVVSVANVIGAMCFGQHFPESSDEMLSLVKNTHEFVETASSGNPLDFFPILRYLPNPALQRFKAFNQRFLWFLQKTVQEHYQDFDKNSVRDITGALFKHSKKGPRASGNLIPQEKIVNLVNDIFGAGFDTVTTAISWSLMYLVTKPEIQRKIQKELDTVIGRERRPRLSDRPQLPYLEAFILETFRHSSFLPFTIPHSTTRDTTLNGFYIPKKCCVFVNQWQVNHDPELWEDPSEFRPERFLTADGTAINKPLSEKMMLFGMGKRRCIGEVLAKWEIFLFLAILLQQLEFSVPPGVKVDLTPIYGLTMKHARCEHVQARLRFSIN

[11] = biological target: T3, Cytochrome P450 3A4; experiment: Reversible inhibition of CYP3A4 in human liver microsomes using midazolam as substrate by LC/MS/MS analysis; assay type: ADME, Microsome
[12] = biological target: Tyrosine-protein kinase JAK3 (Homo sapiens, UniProt P52333)
[13] = Oral bioavailability in cynomolgus monkey at 2 mg/kg by LC/MS/MS analysis; assay type: ADME, organism-based, Macaca fascicularis; conditions: in vivo
[14] = Oral bioavailability in Beagle dog at 2 mg/kg by LC/MS/MS analysis; assay type: ADME, organism-based, Canis lupus familiaris; conditions: Beagle, in vivo
[15] = Oral bioavailability in Sprague-Dawley rat at 2 mg/kg by LC/MS/MS analysis; assay type: ADME, organism-based; conditions: Sprague-Dawley, in vivo
[16] = Cmax in cynomolgus monkey at 2 mg/kg, po by LC/MS/MS analysis; assay type: ADME, organism-based, Macaca fascicularis; set-up: dose 2 mg/kg, route oral; conditions: in vivo
[17] = Cmax in Beagle dog at 2 mg/kg, po by LC/MS/MS analysis; assay type: ADME, organism-based, Canis lupus familiaris; set-up: dose 2 mg/kg, route oral; conditions: in vivo
[18] = AUC in cynomolgus monkey at 2 mg/kg, po by LC/MS/MS analysis; assay type: ADME, organism-based, Macaca fascicularis; set-up: dose 2 mg/kg, route oral; conditions: plasma
[19] = AUC in Beagle dog at 2 mg/kg, po by LC/MS/MS analysis; assay type: ADME, organism-based, Canis lupus familiaris; set-up: dose 2 mg/kg, route oral; conditions: plasma
[20] = AUC in Sprague-Dawley rat at 2 mg/kg, po by LC/MS/MS analysis; assay type: ADME, organism-based; set-up: dose 2 mg/kg, route oral; conditions: plasma
[21] = Half life in cynomolgus monkey at 0.4 mg/kg, iv by LC/MS/MS analysis; assay type: ADME, organism-based, Macaca fascicularis; set-up: dose 0.4 mg/kg, route intravenous; conditions: in vivo
[22] = Half life in Beagle dog at 0.4 mg/kg, iv by LC/MS/MS analysis; assay type: ADME, organism-based, Canis lupus familiaris; set-up: dose 0.4 mg/kg, route intravenous; conditions: in vivo
[23] = Half life in Sprague-Dawley rat at 0.4 mg/kg, iv by LC/MS/MS analysis; assay type: ADME, organism-based; set-up: dose 0.4 mg/kg, route intravenous; conditions: in vivo
[24] = Clearance in Beagle dog at 0.4 mg/kg, iv by LC/MS/MS analysis; assay type: ADME, organism-based, Canis lupus familiaris; set-up: dose 0.4 mg/kg, route intravenous; conditions: in vivo
[25] = Clearance in cynomolgus monkey at 0.4 mg/kg, iv by LC/MS/MS analysis; assay type: ADME, organism-based, Macaca fascicularis; set-up: dose 0.4 mg/kg, route intravenous; conditions: in vivo
[26] = Clearance in Sprague-Dawley rat at 0.4 mg/kg, iv by LC/MS/MS analysis; assay type: ADME, organism-based; set-up: dose 0.4 mg/kg, route intravenous; conditions: in vivo
[27] = Metabolic stability in monkey hepatocytes assessed as hepatic clearance; assay type: ADME, cell-based, Macaca mulatta, Liver, Hepatocyte; conditions: rhesus monkey
[28] = Metabolic stability in dog hepatocytes assessed as hepatic clearance; assay type: ADME, cell-based, Canis lupus familiaris, Liver, Hepatocyte
[29] = Metabolic stability in rat hepatocytes assessed as hepatic clearance; assay type: ADME, cell-based, Liver, Hepatocyte
[30] = Plasma protein binding in cynomolgus monkey; assay type: ADME, cell-free, Macaca fascicularis; conditions: read-out: PPB (converted)
[31] = Plasma protein binding in dog; assay type: ADME, cell-free, Canis lupus familiaris; conditions: read-out: PPB (converted)
[32] = Apparent permeability across basolateral to apical side in dog MDCK cells; assay type: ADME, cell-based, Canis lupus familiaris
[33] = Plasma protein binding in rat; assay type: ADME, cell-free; conditions: read-out: PPB (converted)
[34] = Thermodynamic solubility in aqueous buffer at pH 7.4; assay type: physicochemical; conditions: read-out: Therm_solubility
[35] = Thermodynamic solubility in aqueous buffer at pH 2; assay type: physicochemical; conditions: read-out: Therm_solubility
[36] = Cmax in Sprague-Dawley rat at 2 mg/kg, po by LC/MS/MS analysis; assay type: ADME, organism-based; set-up: dose 2 mg/kg, route oral; conditions: in vivo
[37] = biological target: Cytochrome P450 2C19 (Homo sapiens, UniProt P33261)
[38] = biological target: Cytochrome P450 2D6 (Homo sapiens, UniProt P10635)
[39] = biological target: Cytochrome P450 2C9 (Homo sapiens, UniProt P11712)
[40] = biological target: Voltage-gated inwardly rectifying potassium channel KCNH2 (Homo sapiens, UniProt Q12809)
Chain of Voltage-gated inwardly rectifying potassium channel KCNH2 (Q12809 whole entry): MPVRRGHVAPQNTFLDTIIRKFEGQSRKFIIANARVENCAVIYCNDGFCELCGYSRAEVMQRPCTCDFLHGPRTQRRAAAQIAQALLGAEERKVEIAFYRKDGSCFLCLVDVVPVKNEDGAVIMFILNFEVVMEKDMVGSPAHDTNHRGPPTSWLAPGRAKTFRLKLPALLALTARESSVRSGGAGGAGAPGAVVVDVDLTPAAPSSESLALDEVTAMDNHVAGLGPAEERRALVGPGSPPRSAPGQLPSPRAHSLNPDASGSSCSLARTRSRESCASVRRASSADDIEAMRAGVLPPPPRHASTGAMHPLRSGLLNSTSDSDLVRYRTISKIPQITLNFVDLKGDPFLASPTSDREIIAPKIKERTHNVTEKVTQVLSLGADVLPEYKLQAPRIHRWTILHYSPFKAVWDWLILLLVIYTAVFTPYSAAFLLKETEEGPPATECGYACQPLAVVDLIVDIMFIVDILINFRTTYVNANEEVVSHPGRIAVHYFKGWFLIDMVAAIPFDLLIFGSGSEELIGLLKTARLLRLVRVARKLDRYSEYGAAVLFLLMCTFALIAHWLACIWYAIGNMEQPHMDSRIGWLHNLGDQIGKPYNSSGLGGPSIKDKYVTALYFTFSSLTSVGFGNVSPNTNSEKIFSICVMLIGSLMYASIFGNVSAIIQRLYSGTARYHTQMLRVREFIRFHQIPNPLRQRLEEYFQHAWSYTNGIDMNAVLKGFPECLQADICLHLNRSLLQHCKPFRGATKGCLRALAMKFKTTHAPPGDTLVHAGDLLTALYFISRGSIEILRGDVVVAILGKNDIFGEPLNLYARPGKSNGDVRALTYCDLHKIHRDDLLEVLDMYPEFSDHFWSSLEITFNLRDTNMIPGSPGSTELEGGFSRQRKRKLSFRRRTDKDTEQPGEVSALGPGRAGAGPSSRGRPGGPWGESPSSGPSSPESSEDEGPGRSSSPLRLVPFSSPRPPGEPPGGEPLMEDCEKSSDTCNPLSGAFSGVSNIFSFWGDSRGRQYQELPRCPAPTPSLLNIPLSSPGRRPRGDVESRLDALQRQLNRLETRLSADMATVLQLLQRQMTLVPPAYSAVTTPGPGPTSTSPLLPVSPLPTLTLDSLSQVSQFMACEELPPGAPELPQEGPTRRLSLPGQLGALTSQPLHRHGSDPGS

T1 sequence (P23458 whole entry): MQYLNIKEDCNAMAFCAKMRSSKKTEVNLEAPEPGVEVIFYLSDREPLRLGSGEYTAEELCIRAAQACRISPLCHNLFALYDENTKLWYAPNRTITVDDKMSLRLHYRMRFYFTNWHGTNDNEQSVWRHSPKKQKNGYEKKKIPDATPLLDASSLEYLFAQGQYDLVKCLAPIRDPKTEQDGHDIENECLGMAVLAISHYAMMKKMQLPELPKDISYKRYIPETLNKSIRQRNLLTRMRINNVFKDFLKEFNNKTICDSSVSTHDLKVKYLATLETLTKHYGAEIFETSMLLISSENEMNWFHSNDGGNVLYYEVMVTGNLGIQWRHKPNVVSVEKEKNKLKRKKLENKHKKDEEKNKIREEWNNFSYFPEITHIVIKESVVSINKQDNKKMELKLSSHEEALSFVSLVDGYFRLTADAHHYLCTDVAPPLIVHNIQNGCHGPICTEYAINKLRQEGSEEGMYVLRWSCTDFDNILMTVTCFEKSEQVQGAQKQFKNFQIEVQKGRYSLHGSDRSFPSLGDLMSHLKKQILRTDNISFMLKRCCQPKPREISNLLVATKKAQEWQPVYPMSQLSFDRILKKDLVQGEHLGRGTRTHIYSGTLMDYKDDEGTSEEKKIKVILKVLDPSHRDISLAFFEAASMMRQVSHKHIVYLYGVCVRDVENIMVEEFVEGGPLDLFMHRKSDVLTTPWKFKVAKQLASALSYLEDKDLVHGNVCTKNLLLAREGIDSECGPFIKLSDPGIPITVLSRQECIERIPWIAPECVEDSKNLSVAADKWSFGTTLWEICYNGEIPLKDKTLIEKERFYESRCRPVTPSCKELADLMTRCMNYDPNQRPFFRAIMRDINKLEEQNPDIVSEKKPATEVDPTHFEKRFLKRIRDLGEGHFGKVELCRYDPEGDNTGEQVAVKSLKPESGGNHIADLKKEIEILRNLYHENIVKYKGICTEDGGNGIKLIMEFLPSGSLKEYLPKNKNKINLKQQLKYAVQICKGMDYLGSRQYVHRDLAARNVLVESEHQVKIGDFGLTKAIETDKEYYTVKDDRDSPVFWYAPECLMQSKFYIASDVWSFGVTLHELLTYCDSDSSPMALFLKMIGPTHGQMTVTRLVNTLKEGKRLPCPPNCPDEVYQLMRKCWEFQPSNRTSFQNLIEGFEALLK
T2 sequence (O60674 whole entry): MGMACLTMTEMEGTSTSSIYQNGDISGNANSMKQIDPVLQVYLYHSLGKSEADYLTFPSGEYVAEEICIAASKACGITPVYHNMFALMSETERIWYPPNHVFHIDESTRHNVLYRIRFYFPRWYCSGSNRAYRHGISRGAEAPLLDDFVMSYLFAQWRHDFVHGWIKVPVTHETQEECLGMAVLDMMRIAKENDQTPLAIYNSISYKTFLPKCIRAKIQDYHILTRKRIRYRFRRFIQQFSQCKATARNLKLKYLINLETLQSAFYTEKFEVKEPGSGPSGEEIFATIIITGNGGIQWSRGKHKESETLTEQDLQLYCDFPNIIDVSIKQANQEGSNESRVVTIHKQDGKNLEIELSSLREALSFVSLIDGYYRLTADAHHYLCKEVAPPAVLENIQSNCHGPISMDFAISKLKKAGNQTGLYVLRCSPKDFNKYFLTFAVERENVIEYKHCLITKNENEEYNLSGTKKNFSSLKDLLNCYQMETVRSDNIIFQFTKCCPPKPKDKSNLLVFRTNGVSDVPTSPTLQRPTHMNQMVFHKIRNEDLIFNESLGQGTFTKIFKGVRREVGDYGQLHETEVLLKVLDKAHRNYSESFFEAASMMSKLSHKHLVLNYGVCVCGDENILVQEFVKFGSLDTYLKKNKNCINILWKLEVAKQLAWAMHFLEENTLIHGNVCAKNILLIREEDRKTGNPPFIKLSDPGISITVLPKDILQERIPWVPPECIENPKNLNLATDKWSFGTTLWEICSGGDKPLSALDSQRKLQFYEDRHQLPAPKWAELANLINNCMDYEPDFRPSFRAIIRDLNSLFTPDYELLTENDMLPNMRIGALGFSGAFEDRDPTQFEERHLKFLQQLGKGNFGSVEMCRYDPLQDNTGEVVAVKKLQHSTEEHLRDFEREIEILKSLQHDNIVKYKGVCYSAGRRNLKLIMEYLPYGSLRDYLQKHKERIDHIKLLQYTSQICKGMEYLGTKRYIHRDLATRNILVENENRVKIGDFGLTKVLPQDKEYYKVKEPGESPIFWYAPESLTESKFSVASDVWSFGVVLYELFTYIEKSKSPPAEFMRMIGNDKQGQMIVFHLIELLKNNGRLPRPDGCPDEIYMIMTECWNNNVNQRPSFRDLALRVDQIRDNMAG
T3 sequence (P08684 whole entry): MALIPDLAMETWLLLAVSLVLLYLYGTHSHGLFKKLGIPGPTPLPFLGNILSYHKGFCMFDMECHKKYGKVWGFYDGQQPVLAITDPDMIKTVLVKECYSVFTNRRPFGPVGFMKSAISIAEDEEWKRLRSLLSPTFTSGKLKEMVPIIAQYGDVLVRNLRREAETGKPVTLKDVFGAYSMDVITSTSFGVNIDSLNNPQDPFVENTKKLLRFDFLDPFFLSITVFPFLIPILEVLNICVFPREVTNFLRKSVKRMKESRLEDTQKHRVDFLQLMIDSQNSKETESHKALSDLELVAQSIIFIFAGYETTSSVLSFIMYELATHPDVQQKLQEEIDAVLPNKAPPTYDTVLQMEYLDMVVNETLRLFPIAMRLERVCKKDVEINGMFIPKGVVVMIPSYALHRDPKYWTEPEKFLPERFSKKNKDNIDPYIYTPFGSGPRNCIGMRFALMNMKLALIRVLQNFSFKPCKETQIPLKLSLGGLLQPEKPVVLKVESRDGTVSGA
Chain of Tyrosine-protein kinase JAK3 (P52333 whole entry): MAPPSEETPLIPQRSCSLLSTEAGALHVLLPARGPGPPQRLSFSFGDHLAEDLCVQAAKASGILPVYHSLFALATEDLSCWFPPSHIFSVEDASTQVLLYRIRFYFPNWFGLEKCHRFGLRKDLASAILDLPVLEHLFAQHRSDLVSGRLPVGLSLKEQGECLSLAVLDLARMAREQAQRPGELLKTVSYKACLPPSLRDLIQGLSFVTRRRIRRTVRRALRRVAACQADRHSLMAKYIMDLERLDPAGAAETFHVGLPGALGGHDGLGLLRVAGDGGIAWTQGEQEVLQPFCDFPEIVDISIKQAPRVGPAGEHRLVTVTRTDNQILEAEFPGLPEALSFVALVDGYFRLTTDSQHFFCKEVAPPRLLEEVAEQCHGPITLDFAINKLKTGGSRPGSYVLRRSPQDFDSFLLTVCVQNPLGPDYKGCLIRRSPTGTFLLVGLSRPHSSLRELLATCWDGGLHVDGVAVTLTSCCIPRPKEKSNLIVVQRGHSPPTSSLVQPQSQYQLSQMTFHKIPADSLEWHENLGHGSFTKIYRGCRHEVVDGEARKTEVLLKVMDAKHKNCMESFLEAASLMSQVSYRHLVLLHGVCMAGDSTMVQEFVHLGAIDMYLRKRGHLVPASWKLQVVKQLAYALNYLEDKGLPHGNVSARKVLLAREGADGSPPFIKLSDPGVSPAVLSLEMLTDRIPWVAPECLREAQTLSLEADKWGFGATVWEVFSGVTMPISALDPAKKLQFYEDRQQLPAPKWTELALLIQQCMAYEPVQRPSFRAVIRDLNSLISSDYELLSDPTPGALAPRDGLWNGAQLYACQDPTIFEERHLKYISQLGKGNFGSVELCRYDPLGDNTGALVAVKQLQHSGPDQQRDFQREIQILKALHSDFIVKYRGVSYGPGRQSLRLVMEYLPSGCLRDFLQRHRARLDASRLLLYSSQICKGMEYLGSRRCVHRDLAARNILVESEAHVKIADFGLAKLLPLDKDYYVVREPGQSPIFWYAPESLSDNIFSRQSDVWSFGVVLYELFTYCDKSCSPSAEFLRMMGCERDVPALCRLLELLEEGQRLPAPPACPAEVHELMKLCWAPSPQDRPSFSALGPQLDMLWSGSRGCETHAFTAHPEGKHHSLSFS

C[C@@H](O)c1nc2cnc3[nH]ccc3c2n1[C@H]1CC[C@H](NCC(F)(F)F)C1
CLhep predicted [1]: 5.6 mL/min/kg | CLhep predicted [2]: 3.5 mL/min/kg | Papp A→B [3]: 10 ×10⁻⁶ cm/s | EC50 [4]: 82 nM | EC50 [5]: 74 nM | Ki [6]: 1.2 nM

CC[C@@H](O)c1nc2cnc3[nH]ccc3c2n1C1CCCCC1
CLhep predicted [1]: 7.6 mL/min/kg | CLhep predicted [2]: 12 mL/min/kg | Papp A→B [3]: 22 ×10⁻⁶ cm/s

C[C@@H](O)c1nc2cnc3[nH]ccc3c2n1C1CCOCC1
Ki [6]: 31 nM

OCCc1nc2cnc3[nH]ccc3c2n1C1CCCCC1
CLhep predicted [1]: 5.3 mL/min/kg | CLhep predicted [2]: 17 mL/min/kg | Papp A→B [3]: 23 ×10⁻⁶ cm/s | EC50 [7]: 1500 nM | Ki [8]: 18 nM | EC50 [4]: 1500 nM | EC50 [5]: 130 nM | Ki [6]: 3.5 nM

C[C@@H](O)c1nc2cnc3[nH]ccc3c2n1C1CCN(CC(F)(F)F)CC1
CLhep predicted [1]: 9.2 mL/min/kg | CLhep predicted [2]: 8.5 mL/min/kg | Papp A→B [3]: 25 ×10⁻⁶ cm/s | EC50 [4]: 820 nM | EC50 [5]: 110 nM | Ki [6]: 2.6 nM

C[C@@H](O)c1nc2cnc3[nH]ccc3c2n1[C@H]1CC[C@H](NCC(F)F)CC1
CLhep predicted [1]: 3.6 mL/min/kg | CLhep predicted [2]: 1.1 mL/min/kg | Papp A→B [3]: 2.8 ×10⁻⁶ cm/s | EC50 [4]: 62 nM | EC50 [5]: 57 nM | Ki [6]: 1.1 nM

OCc1nc2cnc3[nH]ccc3c2n1C1CCCCC1
CLhep predicted [1]: 5.6 mL/min/kg | CLhep predicted [2]: 19 mL/min/kg | Papp A→B [3]: 24 ×10⁻⁶ cm/s | EC50 [7]: 730 nM | Ki [8]: 8.3 nM | EC50 [4]: 313 nM | EC50 [5]: 64 nM | Ki [6]: 1.1 nM

C[C@@H](O)c1nc2cnc3[nH]ccc3c2n1[C@H]1CC[C@H](CCC#N)CC1
IC50 [9]: > 10000 nM | IC50 [10]: > 10000 nM | IC50 [11]: 6700 nM | Ki [12]: 7.8 nM | bioavailability [13]: 8% | bioavailability [14]: 125% | bioavailability [15]: 50% | Cmax [16]: 70 nM | Cmax [17]: 1300 nM | AUC [18]: 0.26 µM·h | AUC [19]: 4.3 µM·h | AUC [20]: 0.42 µM·h | half-life [21]: 48 min | half-life [22]: 78 min | half-life [23]: 36 min | clearance [24]: 29 mL/min/kg | clearance [25]: 29 mL/min/kg | clearance [26]: 126 mL/min/kg | CLhep predicted [27]: 36 mL/min/kg | CLhep predicted [28]: 11 mL/min/kg | CLhep predicted [29]: 28 mL/min/kg | fraction unbound [30]: 0.24 | fraction unbound [31]: 0.34 | Papp B→A [32]: 9.3 ×10⁻⁶ cm/s | fraction unbound [33]: 0.32 | solubility thermodynamic [34]: 16 µM (≈ 5.4 µg/mL) | solubility thermodynamic [35]: > 4000 µM | CLhep predicted [1]: 5.2 mL/min/kg | CLhep predicted [2]: 5.7 mL/min/kg | Papp A→B [3]: 4.7 ×10⁻⁶ cm/s | Cmax [36]: 220 nM | IC50 [37]: > 10000 nM | IC50 [38]: > 10000 nM | IC50 [39]: > 10000 nM | IC50 [40]: 20000 nM

C[C@H](O)c1nc2cnc3[nH]ccc3c2n1C1CCCCC1
EC50 [7]: 5300 nM | Ki [8]: 90 nM

C[C@@H](O)c1nc2cnc3[nH]ccc3c2n1[C@@H]1CCCOC1
CLhep predicted [1]: 4.6 mL/min/kg | Ki [6]: 68 nM

C[C@@H](O)c1nc2cnc3[nH]ccc3c2n1[C@H]1CC[C@@H](O)CC1
CLhep predicted [1]: 2.1 mL/min/kg | EC50 [5]: 380 nM | Ki [6]: 12 nM

C[C@@H](O)c1nc2cnc3[nH]ccc3c2n1C1CCN(CCC#N)CC1
CLhep predicted [1]: 4.2 mL/min/kg | CLhep predicted [2]: 6.8 mL/min/kg | Papp A→B [3]: 1.9 ×10⁻⁶ cm/s | EC50 [4]: 320 nM | EC50 [5]: 510 nM | Ki [6]: 3.4 nM

CO[C@H]1CC[C@H](n2c([C@@H](C)O)nc3cnc4[nH]ccc4c32)CC1
CLhep predicted [1]: 1.3 mL/min/kg | CLhep predicted [2]: 5.9 mL/min/kg | Papp A→B [3]: 6.7 ×10⁻⁶ cm/s
